Test results taken from paper PMC8717711, “Metabolites From the Mangrove-Derived Fungus Cladosporium sp. HNWSW-1” (Frontiers in Chemistry, 2021).

What was measured:
[1] = target: α-glucosidase (from baker's yeast); assay: α-Glycosidase inhibitory activity (p-nitrophenyl α-D-glucopyranoside substrate); assay type: biochemical; conditions: α-glucosidase 0.2 U/ml, phosphate buffer pH 6.8, pNPG substrate, 37°C 15 min, absorbance 405 nm
Experimental: A mixture including 25 μl of different compounds (final concentrations of 0.0625, 0.125, 0.25, 0.5, and 1.0 mM), 25 μl of α-glucosidase (0.2 U/ml, from baker’s yeast, Sigma), and 175 μl phosphate buffer (pH 6.8) was left to stand for 10 min at room temperature in a 96-well plate, and then 25 μl of 23.2 mM p-nitrophenyl α-D-glucopyranoside (Sigma-Aldrich) was added and further incubated at 37°C for 15 min. Finally, the absorbance was measured at 405 nm to determine the amount of p-nitrophenol cleaved by the enzyme using a Synergy H1 Hybrid Multi-Mode Microplate Reader (BioTek Instruments, Inc.). The control was prepared by adding phosphate buffer instead of the sample in the same way as the test. The blank was prepared by adding phosphate buffer instead of α-glucosidase using the same method.

[2] = Cytotoxicity by the MTT method, K562; assay type: cell-based; conditions: human, K562 cells (leukemia cell line), 36 h incubation with compound
Experimental: (§1) The cytotoxic activity of compounds 1–3 and 5–8 against human cervical cancer cell lines (Hela), human hepatic carcinoma cell lines (BEL-7402), leukemia cell lines (K562), and human gastric cell lines (SGC-7901) was assayed by the MTT method ([Mosmann, 1983]; [Wang et al., 2013]). These cell lines were purchased from Shang Hai Cell Bank of Chinese Academy of Sciences. Hela, BEL-7402, K562, and SGC-7901 cell lines were cultured in RPMI-1640 with 10% FBS under a humidified atmosphere of 5% CO2 and 95% air at 37°C, and 198 μl of the cell suspension was plated in 96-well microtiter plates. After being incubated for 24 h, 2 μl of the test solutions in DMSO was added to each well and further incubated for 36 h. The MTT solution (20 μl, 5 mg/ml in IPMI-1640 medium) was then added to each well and further incubated for 4 h. Finally, the medium containing MTT (150 μl) was gently replaced by DMSO and pipetted to dissolve any formazan crystals formed. Absorbance was then determined on a Multiskan FC photometric microplate reader (Thermo Fisher Scientific) at 570 nm. Adriamycin was used as the positive control drug.

[3] = Cytotoxicity by the MTT method, SGC-7901; assay type: cell-based; conditions: human, SGC-7901 cells (human gastric cell line), 36 h incubation with compound
Experimental: as §1

[4] = Cytotoxicity by the MTT method, BEL-7402; assay type: cell-based; conditions: human, BEL-7042 (printed in table; BEL-7402 in text) cells, 36 h incubation with compound
Experimental: as §1

[5] = Cytotoxicity by the MTT method, Hela; assay type: cell-based; conditions: human, HeLa cells (human cervical cancer cell line), 36 h incubation with compound
Experimental: as §1

Row | IC50 [1] [µM] | Structure (SMILES) | IC50 at 36 h [2] [µM] | IC50 at 36 h [3] [µM] | IC50 at 36 h [4] [µM] | IC50 at 36 h [5] [µM]
1 | 320 ± 10 | CC(O)(CCC(=O)O)CCc1cc(C(=O)O)ccc1O (stereo not drawn) [Compound 1, cladoslide A] | 13.1 ± 0.08 | > 100 | > 100 | > 100
2 | > 1000 | CC(C)C[C@H](NC(=O)c1nc(C(=O)O)cc2c1[nH]c1ccccc12)C(=O)O [Compound 3, cladospomine] | > 100 | > 100 | > 100 | > 100
3 | – | COc1cccc2c1C(=O)c1c(O)c3c(c(O)c1C2=O)C[C@@](O)(C(=O)CO)C[C@@H]3O[C@H]1C[C@H](N)[C@H](O)[C@H](C)O1 [Adriamycin, reference compound] | 0.1 ± 0.01 | 0.22 ± 0.01 | 0.47 ± 0.01 | 0.28 ± 0.01
4 | > 1000 | COC(=O)CCC(C)(O)CCc1cc(C(=O)O)ccc1O (stereo not drawn) [Compound 2, cladoslide B] | > 100 | > 100 | > 100 | > 100
5 | 170 ± 10 | CC(=O)NCC(=O)c1c[nH]c2ccccc12 [Compound 5, N-acetyl-β-oxotryptamine] | > 100 | > 100 | > 100 | > 100

Row | Structure (SMILES) | IC50 [1] [µM] | IC50 at 36 h [2] [µM] | IC50 at 36 h [3] [µM] | IC50 at 36 h [4] [µM] | IC50 at 36 h [5] [µM]
6 | C[C@@H](O)CCCCC[C@H](O)[C@@H]1C=CC(=O)O1 [Compound 6, (4S,5S,11R)-iso-cladospolide B] | > 1000 | > 100 | > 100 | > 100 | > 100
7 | C[C@@H](O)CCCCC[C@H](O)[C@H]1C=CC(=O)O1 [Compound 8, (4R,5S,11R)-iso-cladospolide B] | > 1000 | > 100 | > 100 | > 100 | > 100
8 | C[C@H](O)CCCCC[C@H](O)[C@@H]1C=CC(=O)O1 [Compound 7, (4S,5S,11S)-iso-cladospolide B] | > 1000 | > 100 | > 100 | > 100 | > 100
